Laboratory results from ChEMBL document CHEMBL5154644, “Design, Synthesis, and Structure-Activity Relationship Optimization of Pyrazolopyrimidine Amide Inhibitors of Phosphoinositide 3-Kinase γ (PI3Kγ)” (J Med Chem, 2022).

Test system: not listed separately
Assay: Hepatic clearance in Sprague-Dawley rat by LC-MS/MS analysis
Type: ADME
Details: in vivo

SMILES | CLH [mL/min/kg]
Cc1cc(-c2ccn3nc(N)c(C(=O)N[C@H]4CC[C@](C)(O)CC4)c3n2)cc2c1C(=O)N([C@@H](C)C1CC1)C2 | 71.7
Cc1cc(-c2ccn3nc(N)c(C(=O)N[C@H]4CCOC4)c3n2)cc2c1C(=O)N([C@@H](C)C1CC1)C2 | 130
Cc1cc(-c2ccn3nc(N)c(C(=O)N[C@H]4CC[C@@](C)(O)CC4)c3n2)cc2c1C(=O)N([C@@H](C)C1CC1)C2 | 33

Next, values leading:

CLH [mL/min/kg] | SMILES
28.3 | CC(C)S(=O)(=O)c1cc(-c2ccn3nc(N)c(C(=O)NC4CC4)c3n2)cc2c1C(=O)N([C@@H](C)C1CC1)C2
21.7 | Cc1cc(-c2ccn3nc(N)c(-c4cnn(C)c4)c3n2)cc2c1C(=O)N([C@@H](C)C1CC1)C2

Target: T1, Phosphatidylinositol 4,5-bisphosphate 3-kinase catalytic subunit gamma isoform (Homo sapiens, UniProt P48736)
Assay: Inhibition of PI3Kgamma (unknown origin) in […] stimulated human THP-1 cells assessed as reduction in Akt phosphorylation level at Ser473 residue preincubated for 60 mins followed by rhMCP-1 stimulation and measured after 2 mins by AlphaLisa assay
Type: cell-based
Details: not given

T1 sequence (P48736 whole entry, canonical isoform): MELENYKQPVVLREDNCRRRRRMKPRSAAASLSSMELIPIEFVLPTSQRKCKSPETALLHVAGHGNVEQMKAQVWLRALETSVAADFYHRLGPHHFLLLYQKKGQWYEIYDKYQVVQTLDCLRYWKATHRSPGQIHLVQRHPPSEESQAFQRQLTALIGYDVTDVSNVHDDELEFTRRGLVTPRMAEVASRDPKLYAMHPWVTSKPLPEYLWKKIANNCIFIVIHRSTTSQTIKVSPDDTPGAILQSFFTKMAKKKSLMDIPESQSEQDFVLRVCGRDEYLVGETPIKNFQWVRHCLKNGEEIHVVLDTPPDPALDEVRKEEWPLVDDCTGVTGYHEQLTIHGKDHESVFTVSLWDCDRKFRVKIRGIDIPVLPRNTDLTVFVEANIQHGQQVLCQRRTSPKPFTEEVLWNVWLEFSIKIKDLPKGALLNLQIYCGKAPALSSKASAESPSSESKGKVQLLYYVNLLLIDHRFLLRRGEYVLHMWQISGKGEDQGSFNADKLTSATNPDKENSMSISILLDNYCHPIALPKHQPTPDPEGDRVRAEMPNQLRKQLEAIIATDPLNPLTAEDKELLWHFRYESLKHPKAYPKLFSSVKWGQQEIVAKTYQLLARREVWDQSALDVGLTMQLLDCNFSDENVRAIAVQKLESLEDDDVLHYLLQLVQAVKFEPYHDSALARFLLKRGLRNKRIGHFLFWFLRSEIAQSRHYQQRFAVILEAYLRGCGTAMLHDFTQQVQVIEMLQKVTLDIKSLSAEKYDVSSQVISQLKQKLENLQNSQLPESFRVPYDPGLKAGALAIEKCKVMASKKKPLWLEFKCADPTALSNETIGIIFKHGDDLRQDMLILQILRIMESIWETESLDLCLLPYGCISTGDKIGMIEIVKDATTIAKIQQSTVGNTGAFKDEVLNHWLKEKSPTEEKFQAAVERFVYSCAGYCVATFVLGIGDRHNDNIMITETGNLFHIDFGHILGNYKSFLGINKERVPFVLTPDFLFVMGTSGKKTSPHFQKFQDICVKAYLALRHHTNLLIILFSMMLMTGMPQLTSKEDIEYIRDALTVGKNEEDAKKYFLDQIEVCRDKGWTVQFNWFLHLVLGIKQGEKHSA

IC50 [nM] | SMILES
76 | Cc1cc(-c2ccn3nc(N)c(C(=O)N[C@H]4CC[C@](C)(O)CC4)c3n2)cc2c1C(=O)N([C@@H](C)C1CC1)C2
148 | Cc1cc(-c2ccn3nc(N)c(C(=O)N[C@H]4CCOC4)c3n2)cc2c1C(=O)N([C@@H](C)C1CC1)C2
102 | Cc1cc(-c2ccn3nc(N)c(C(=O)N[C@H]4CC[C@@](C)(O)CC4)c3n2)cc2c1C(=O)N([C@@H](C)C1CC1)C2

Target: T1, Phosphatidylinositol 4,5-bisphosphate 3-kinase catalytic subunit gamma isoform
Assay: Inhibition of PI3Kgamma (unknown origin) using PIP2 as substrate preincubated for 1 hr followed by substrate addition and measured after 60 mins in presence of ATP by ADP-glo assay
Details: not given

IC50 [nM] | SMILES
3 | Cc1cc(-c2ccn3nc(N)c(C(=O)N[C@H]4CC[C@](C)(O)CC4)c3n2)cc2c1C(=O)N([C@@H](C)C1CC1)C2
1.8 | Cc1cc(-c2ccn3nc(N)c(C(=O)N[C@H]4CCOC4)c3n2)cc2c1C(=O)N([C@@H](C)C1CC1)C2
4.8 | Cc1cc(-c2ccn3nc(N)c(C(=O)N[C@H]4CC[C@@](C)(O)CC4)c3n2)cc2c1C(=O)N([C@@H](C)C1CC1)C2

Test system: not listed separately
Assay: Metabolic stability in human hepatocytes assessed as intrinsic clearance per 10^6 cells at 0.5 uM by LC-MS/MS analysis
Type: ADME, cell-based, Hepatocyte
Details: read-out: CLH

hepatocyte CLint at 0.5 µM [µL/min/1e6 cells] | SMILES
8.7 | Cc1cc(-c2ccn3nc(N)c(C(=O)N[C@H]4CC[C@](C)(O)CC4)c3n2)cc2c1C(=O)N([C@@H](C)C1CC1)C2
9.35 | Cc1cc(-c2ccn3nc(N)c(C(=O)N[C@H]4CCOC4)c3n2)cc2c1C(=O)N([C@@H](C)C1CC1)C2
2.43 | CC(C)S(=O)(=O)c1cc(-c2ccn3nc(N)c(C(=O)NC4CC4)c3n2)cc2c1C(=O)N([C@@H](C)C1CC1)C2
< 1.2 | Cc1cc(-c2ccn3nc(N)c(C(=O)N[C@H]4CC[C@@](C)(O)CC4)c3n2)cc2c1C(=O)N([C@@H](C)C1CC1)C2

Test system: not listed separately
Assay: Metabolic stability in rat hepatocyte assessed as intrinsic clearance per 10^8 cells at 0.5 uM by LC-MS/MS analysis
Type: ADME, cell-based
Details: hepatocytes

hepatocyte intrinsic clearance [µL/min] | SMILES
22.1 | Cc1cc(-c2ccn3nc(N)c(C(=O)N[C@H]4CC[C@](C)(O)CC4)c3n2)cc2c1C(=O)N([C@@H](C)C1CC1)C2
13 | Cc1cc(-c2ccn3nc(N)c(C(=O)N[C@H]4CCOC4)c3n2)cc2c1C(=O)N([C@@H](C)C1CC1)C2
< 1.2 | CC(C)S(=O)(=O)c1cc(-c2ccn3nc(N)c(C(=O)NC4CC4)c3n2)cc2c1C(=O)N([C@@H](C)C1CC1)C2
11.6 | Cc1cc(-c2ccn3nc(N)c(C(=O)N[C@H]4CC[C@@](C)(O)CC4)c3n2)cc2c1C(=O)N([C@@H](C)C1CC1)C2

Target: Phosphatidylinositol 4,5-bisphosphate 3-kinase catalytic subunit alpha isoform (Homo sapiens, UniProt P42336)
Assay: Inhibition of PI3Kalpha (unknown origin) using PIP2 as substrate preincubated for 1 hr followed by substrate addition and measured after 60 mins in presence of ATP by ADP-glo assay
Details: not given

Phosphatidylinositol 4,5-bisphosphate 3-kinase catalytic subunit alpha isoform, sequence (P42336 whole entry, canonical isoform): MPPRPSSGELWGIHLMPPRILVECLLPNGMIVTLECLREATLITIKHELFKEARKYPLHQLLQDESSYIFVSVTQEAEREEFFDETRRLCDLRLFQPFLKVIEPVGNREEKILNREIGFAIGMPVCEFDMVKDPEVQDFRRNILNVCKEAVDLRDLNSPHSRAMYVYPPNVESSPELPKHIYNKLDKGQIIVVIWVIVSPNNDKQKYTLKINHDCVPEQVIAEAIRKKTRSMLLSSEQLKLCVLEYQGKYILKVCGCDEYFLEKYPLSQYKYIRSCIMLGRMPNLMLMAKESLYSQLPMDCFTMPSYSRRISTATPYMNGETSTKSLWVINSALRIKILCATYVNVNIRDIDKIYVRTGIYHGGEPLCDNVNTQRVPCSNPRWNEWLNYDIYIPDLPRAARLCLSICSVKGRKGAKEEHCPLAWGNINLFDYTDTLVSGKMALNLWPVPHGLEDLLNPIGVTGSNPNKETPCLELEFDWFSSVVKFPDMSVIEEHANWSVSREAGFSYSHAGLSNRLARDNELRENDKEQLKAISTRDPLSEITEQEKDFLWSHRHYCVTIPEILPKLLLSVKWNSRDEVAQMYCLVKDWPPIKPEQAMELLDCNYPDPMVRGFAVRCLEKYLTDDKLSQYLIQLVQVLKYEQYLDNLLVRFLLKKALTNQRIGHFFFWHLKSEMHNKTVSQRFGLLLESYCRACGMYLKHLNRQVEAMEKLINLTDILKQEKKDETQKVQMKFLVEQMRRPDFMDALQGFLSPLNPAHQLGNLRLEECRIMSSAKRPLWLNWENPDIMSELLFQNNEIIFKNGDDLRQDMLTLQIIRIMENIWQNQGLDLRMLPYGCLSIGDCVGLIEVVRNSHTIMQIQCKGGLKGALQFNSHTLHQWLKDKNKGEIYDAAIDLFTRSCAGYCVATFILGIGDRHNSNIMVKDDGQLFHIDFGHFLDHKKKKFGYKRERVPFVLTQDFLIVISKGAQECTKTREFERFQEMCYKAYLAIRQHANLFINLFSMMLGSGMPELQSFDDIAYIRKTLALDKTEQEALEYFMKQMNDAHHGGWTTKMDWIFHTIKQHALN

IC50 [nM] | SMILES
240 | Cc1cc(-c2ccn3nc(N)c(C(=O)N[C@H]4CC[C@](C)(O)CC4)c3n2)cc2c1C(=O)N([C@@H](C)C1CC1)C2
974 | Cc1cc(-c2ccn3nc(N)c(C(=O)N[C@H]4CCOC4)c3n2)cc2c1C(=O)N([C@@H](C)C1CC1)C2
952 | CC(C)S(=O)(=O)c1cc(-c2ccn3nc(N)c(C(=O)NC4CC4)c3n2)cc2c1C(=O)N([C@@H](C)C1CC1)C2
> 10000 | Cc1cc(-c2ccn3nc(N)c(C(=O)N[C@H]4CC[C@@](C)(O)CC4)c3n2)cc2c1C(=O)N([C@@H](C)C1CC1)C2

Target: T2, Phosphatidylinositol 4,5-bisphosphate 3-kinase catalytic subunit delta isoform (Homo sapiens, UniProt O00329)
T2 sequence (O00329 whole entry): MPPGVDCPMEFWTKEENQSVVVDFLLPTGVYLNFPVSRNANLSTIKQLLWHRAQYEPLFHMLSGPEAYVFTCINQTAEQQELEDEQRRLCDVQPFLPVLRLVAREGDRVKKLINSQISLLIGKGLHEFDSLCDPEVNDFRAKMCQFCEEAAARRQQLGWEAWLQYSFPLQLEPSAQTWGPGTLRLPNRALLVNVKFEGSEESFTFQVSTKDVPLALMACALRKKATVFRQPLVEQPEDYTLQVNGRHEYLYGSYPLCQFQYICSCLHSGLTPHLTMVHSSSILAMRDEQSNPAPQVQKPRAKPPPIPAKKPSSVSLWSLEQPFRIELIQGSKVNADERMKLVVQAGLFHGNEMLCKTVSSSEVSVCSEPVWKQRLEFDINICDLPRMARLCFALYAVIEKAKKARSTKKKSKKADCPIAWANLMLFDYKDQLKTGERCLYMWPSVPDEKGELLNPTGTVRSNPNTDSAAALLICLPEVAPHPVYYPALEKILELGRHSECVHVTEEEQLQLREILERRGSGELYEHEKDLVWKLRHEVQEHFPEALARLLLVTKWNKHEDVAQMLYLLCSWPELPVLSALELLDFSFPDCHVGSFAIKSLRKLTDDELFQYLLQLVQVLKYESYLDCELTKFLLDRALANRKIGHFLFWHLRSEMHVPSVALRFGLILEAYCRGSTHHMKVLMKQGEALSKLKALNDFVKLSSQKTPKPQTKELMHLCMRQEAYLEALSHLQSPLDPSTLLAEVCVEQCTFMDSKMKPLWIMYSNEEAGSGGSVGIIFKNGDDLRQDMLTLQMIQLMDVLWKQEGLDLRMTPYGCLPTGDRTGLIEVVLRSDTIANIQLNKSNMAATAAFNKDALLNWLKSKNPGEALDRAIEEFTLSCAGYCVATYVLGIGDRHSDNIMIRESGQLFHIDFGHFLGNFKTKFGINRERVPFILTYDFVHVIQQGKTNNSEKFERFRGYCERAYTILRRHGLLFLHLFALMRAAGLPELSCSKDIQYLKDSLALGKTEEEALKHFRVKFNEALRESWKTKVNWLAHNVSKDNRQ
Assay: Inhibition of PI3Kdelta (unknown origin) using PIP2 as substrate preincubated for 1 hr followed by substrate addition and measured after 60 mins in presence of ATP by ADP-glo assay
Details: not given

IC50 [nM] | SMILES
155 | Cc1cc(-c2ccn3nc(N)c(C(=O)N[C@H]4CC[C@](C)(O)CC4)c3n2)cc2c1C(=O)N([C@@H](C)C1CC1)C2
598 | Cc1cc(-c2ccn3nc(N)c(C(=O)N[C@H]4CCOC4)c3n2)cc2c1C(=O)N([C@@H](C)C1CC1)C2
714 | CC(C)S(=O)(=O)c1cc(-c2ccn3nc(N)c(C(=O)NC4CC4)c3n2)cc2c1C(=O)N([C@@H](C)C1CC1)C2
> 10000 | Cc1cc(-c2ccn3nc(N)c(C(=O)N[C@H]4CC[C@@](C)(O)CC4)c3n2)cc2c1C(=O)N([C@@H](C)C1CC1)C2

Organism: Homo sapiens
Assay: Selectivity ratio of IC50 for inhibition of PI3Kalpha (unknown origin) to IC50 for inhibition of PI3Kgamma (unknown origin)
Details: not given

Ratio IC50 | SMILES
82 | Cc1cc(-c2ccn3nc(N)c(C(=O)N[C@H]4CC[C@](C)(O)CC4)c3n2)cc2c1C(=O)N([C@@H](C)C1CC1)C2
580 | Cc1cc(-c2ccn3nc(N)c(C(=O)N[C@H]4CCOC4)c3n2)cc2c1C(=O)N([C@@H](C)C1CC1)C2
> 2090 | Cc1cc(-c2ccn3nc(N)c(C(=O)N[C@H]4CC[C@@](C)(O)CC4)c3n2)cc2c1C(=O)N([C@@H](C)C1CC1)C2

Organism: Homo sapiens
Assay: Selectivity ratio of IC50 for inhibition of PI3Kdelta (unknown origin) to IC50 for inhibition of PI3Kgamma (unknown origin)
Details: not given

Ratio IC50 | SMILES
53 | Cc1cc(-c2ccn3nc(N)c(C(=O)N[C@H]4CC[C@](C)(O)CC4)c3n2)cc2c1C(=O)N([C@@H](C)C1CC1)C2
352 | Cc1cc(-c2ccn3nc(N)c(C(=O)N[C@H]4CCOC4)c3n2)cc2c1C(=O)N([C@@H](C)C1CC1)C2
> 2090 | Cc1cc(-c2ccn3nc(N)c(C(=O)N[C@H]4CC[C@@](C)(O)CC4)c3n2)cc2c1C(=O)N([C@@H](C)C1CC1)C2
